Laboratory results as given in paper PMC4041848, “Differential Effects of Omeprazole and Lansoprazole Enantiomers on Aryl Hydrocarbon Receptor in Human Hepatocytes and Cell Lines” (PLoS ONE, 2014).
Like-named read-outs stand apart in the source and are kept apart here.

Experiments:
CYP1A1 mRNA [1] = assay: CYP1A1 mRNA induction in primary human hepatocytes (qRT-PCR)
Source text: (§1) Primary human hepatocytes used in this study were obtained from two sources: (i) from multiorgan donor HH52; the use of liver cells of donor HH52 was approved by “Ethical committee at the Faculty Hospital Olomouc”,and it was in accordance with Transplantation law #285/2002 Sb; “Ethical committee at the Faculty Hospital Olomouc” waived the authors from obtaining consent from the next of kin, regarding human hepatocytes obtained from liver donor HH52. (ii) long-term human hepatocytes in monolayer Batch HEP220770 (person), Batch HEP220774 (person) were purchased from Biopredic International (Biopredic International, Rennes, France). Cells were cultured in serum-free medium. Cultures were maintained at 37°C and 5% CO2 in a humidified incubator.
(§2) Total RNA was isolated using TRI Reagent (Molecular Research Center, Cincinnati, OH, USA). cDNA was synthesized from 1000 ng of total RNA using M-MLV Reverse Transcriptase (Finnzymes, Espoo, Finland) at 42°C for 60 min in the presence of random hexamers (Takara, Shiga, Japan). qRT-PCR was carried out using LightCycler FastStart DNA MasterPLUS SYBR Green I (Roche Diagnostic Corporation, Prague, Czech Republic) on a Light Cycler 480 II apparatus (Roche Diagnostic Corporation). CYP1A1, CYP1A2 and GAPDH mRNAs were determined as described previously. Measurements were performed in triplicates. Gene expression was normalized to GAPDH as a housekeeping gene.
We examined a capability of omeprazole and lansoprazole to induce CYP1A1 and CYP1A2 mRNA and protein in primary human hepatocytes, which is a more physiological and metabolically competent cell model. Human hepatocytes were treated for 24 h or 48 h with TCDD (5 nM), vehicle (DMSO; 0.1% V/V) and tested compounds.
Figure 3 Effects of omeprazole and lansoprazole enantiomers on CYP1A1 mRNA, protein and EROD activity in primary human hepatocytes. Panel A and Panel B: RT-PCR analyses of CYP1A1 and CYP1A2 mRNA and western blots of CYP1A1 and CYP1A2 from two different cultures (HH52 and Hep220770) are shown. Human hepatocytes were incubated for 24 h (mRNA analysis) or 48 (protein analysis) with S-OME, R-OME, rac-OME, S-LAN, R-LAN, rac-LAN, TCDD and vehicle (DMSO; 0.1% v/v). RT-PCR data are the mean ± SD from triplicate measurements and are expressed as fold induction over vehicle-treated cells. Data were normalized to GAPDH mRNA levels. Density of bands in western blots was quantified by densitometry and the values are indicated along with respective blots. Panel C: EROD and cytotoxicity: Human hepatocytes (culture Hep220774) were treated for 24 h with S-OME, R-OME, rac-OME, S-LAN, R-LAN, rac-LAN, TCDD and vehicle (DMSO; 0.1% v/v). Upper bar graph: An activity of 7-ethoxyresorufin- O-deethylase (EROD) was measured by fluorescent spectrophotometry with 530 nm excitation and 590 nm emission filters. Treatments were performed in triplicates. The data are expressed as fold induction over the value from control cells. Lower bar graph: A conventional MTT test was performed and absorbance was measured at 540 nm. Treatments were performed in triplicates. The data are expressed as percentage of viability of control cells.

[2] = system: aryl hydrocarbon receptor AhR; assay: AhR gene reporter assay, agonist mode; conditions: for AhR agonist efficacy: AZ-AHR cells, 24 h, compared to 5 nM TCDD, calculated at 100 µM compound (stated for omeprazole); for EC50 at 24 h: human
Description: (§3) A stably transfected gene reporter cell line AZ-AHR, derived from human hepatoma HepG2 cells transfected with a construct containing several AhR binding sites upstream of a luciferase reporter gene, was used for assessment of AhR transcriptional activity. Cells were incubated for 24 h with tested compounds and/or vehicle (DMSO; 0.1% v/v), in the presence or absence of TCDD (10 nM; AZ-AHR cells) or DEX (100 nM; AZ-GR cells). After the treatments, cells were lysed and luciferase activity was measured. In parallel, cell viability was determined by conventional MTT test.
(§4) Figure 1 Effect of omeprazole and lansoprazole enantiomers on transcriptional activity of aryl hydrocarbon receptor AhR in human gene reporter cell line AZ-AHR. The cells were seeded in 96-well plates and stabilized for 16 h. Panels A and B: Cells were incubated for 24 h with S-OME, R-OME, rac-OME, S-LAN, R-LAN and rac-LAN at concentrations ranging from 10^−10 M to 10^−4 M. The vehicle was DMSO (0.1% v/v). After the treatment, MTT test was performed and absorbance was measured at 540 nm. Treatments were performed in triplicates. The data are the mean from experiments from six different passages of cells and are expressed as a percentage of viability of control cells. The values of IC50 were calculated and are indicated in a figure. Panels C - F: AZ-AHR cells were incubated for 24 h with S-OME, R-OME, rac-OME, S-LAN, R-LAN and rac-LAN at concentrations ranging from 10^−10 M to 10^−4 M in the absence (Panels C and D - agonist mode) or in the presence (Panels E and F- antagonist mode) of TCDD (5 nM). The vehicle was DMSO (0.1% v/v). After the treatments, cells were lysed and luciferase activity was measured. Treatments were performed in triplicates in five (agonist mode) or four (antagonist mode) independent cell passages. […] Data are expressed as a fold induction of luciferase activity over control cells (Panels C and D - agonist mode) or as a percentage of maximal induction attained by TCDD (Panels E and F- antagonist mode).
Gene reporter assays were performed in two different experimental layouts. […] In antagonist mode, cells were incubated with increasing concentrations of tested compounds in combination with model agonist (TCDD; 5 nM), and half-maximal inhibitory concentrations (IC50) were calculated. […] The efficacy was calculated at concentration of compounds of 100 µM and compared to 5 nM TCDD (Figure 1C).

[3] = MTT cytotoxicity test in AZ-AHR reporter cells; conditions: human
Description: as §3
(§5) In the first series of experiments, the cytotoxicity of tested compounds was assessed in gene reporter cell line AZ-AHR. For this purpose, the cells were incubated for 24 h with S-OME, R-OME, rac-OME, S-LAN, R-LAN and rac-LAN at concentration ranging from 100 pM to 250 µM. The vehicle was DMSO (0.1% v/v). After the treatment, a conventional MTT test was performed.
as §4

CYP1A1 mRNA [4] = conditions: HepG2, 24 h
Description: as §2
Treatments were performed in triplicates.

CYP1A1 protein = CYP1A1 protein induction in primary human hepatocytes (western blot); conditions: hepatocyte culture Hep220770, 48 h, 100 µM
Source text: Primary human hepatocytes used in this study were obtained from two sources: (i) from multiorgan donor HH52; the use of liver cells of donor HH52 was approved by “Ethical committee at the Faculty Hospital Olomouc”,and it was in accordance with Transplantation law #285/2002 Sb; “Ethical committee at the Faculty Hospital Olomouc” waived the authors from obtaining consent from the next of kin, regarding human hepatocytes obtained from liver donor HH52. (ii) long-term human hepatocytes in monolayer Batch HEP220770 (person), Batch HEP220774 (person) were purchased from Biopredic International (Biopredic International, Rennes, France). Cells were cultured in serum-free medium. […]
Total protein extracts were prepared from cells cultured on 6-well plates. […] Supernatant was collected and the protein content was determined by the Bradford reagent. […] The density of bands was measured by densitometry. […]
Figure 3 Effects of omeprazole and lansoprazole enantiomers on CYP1A1 mRNA, protein and EROD activity in primary human hepatocytes. […] RT-PCR data are the mean ± SD from triplicate measurements and are expressed as fold induction over vehicle-treated cells. […] Density of bands in western blots was quantified by densitometry and the values are indicated along with respective blots. […] The data are expressed as fold induction over the value from control cells. […]

AZ-AHR cells = assay: MTT cytotoxicity test in AZ-AHR reporter cells; conditions: AZ-AHR cells, 24 h, MTT, concentrations up to 250 µM
Description: as §3, §5, §4

[5] = set-up: method as in PMID 8710755, PMID 19298580; conditions: after oral administration of racemic drug; ref [8], [9]; cited from earlier work
CYP1A2 mRNA = CYP1A2 mRNA induction in primary human hepatocytes (qRT-PCR); conditions: hepatocyte culture Hep220770, 24 h
Source text: as §1
as §2, with “Gene expression was normalized to GAPDH as a housekeeping gene.” left out

CYP1A2 protein = CYP1A2 protein induction in primary human hepatocytes (western blot); conditions: hepatocyte culture HH52, 48 h, 10 µM
Source text: as §1
Total protein extracts were prepared from cells cultured on 6-well plates. Cells were washed twice with ice-cold PBS and scraped into 1 ml of PBS. The suspension was centrifuged (4500 RPM/5 min/4°C) and the pellet was resuspended in 150 µl of ice-cold lysis buffer (150 mM NaCl; 10 mM Tris pH 7.2; 0.1% (w/v) SDS; anti-protease cocktail, 1% (v/v) Triton X-100; anti-phosphatase cocktail, 1% (v/v) sodium deoxycholate; 5 mM EDTA). […] Supernatant was collected and the protein content was determined by the Bradford reagent. […] The density of bands was measured by densitometry. […]
Figure 3 Effects of omeprazole and lansoprazole enantiomers on CYP1A1 mRNA, protein and EROD activity in primary human hepatocytes. […] RT-PCR data are the mean ± SD from triplicate measurements and are expressed as fold induction over vehicle-treated cells. […] Density of bands in western blots was quantified by densitometry and the values are indicated along with respective blots. […] Upper bar graph: An activity of 7-ethoxyresorufin- O-deethylase (EROD) was measured by fluorescent spectrophotometry with 530 nm excitation and 590 nm emission filters. […] The data are expressed as fold induction over the value from control cells. Lower bar graph: A conventional MTT test was performed and absorbance was measured at 540 nm. […] The data are expressed as percentage of viability of control cells.

[6] = hepatocyte culture Hep220770, 24 h, 100 µM

| SMILES | CYP1A1 mRNA induction (CYP1A1 mRNA [1]; [6]) [fold] | AhR agonist efficacy [2] [%] | EC50 at 24 h [2] [µM] | IC50 at 24 h [3] [µM] | CYP1A1 mRNA induction (CYP1A1 mRNA [4]; 250 µM) | CYP1A1 mRNA induction (CYP1A1 mRNA [1]; hepatocyte culture Hep220770, 24 h, 250 µM) [fold] | CYP1A1 protein induction (CYP1A1 protein) | cytotoxicity (AZ-AHR cells) | CYP1A1 mRNA induction relative to S-LAN (CYP1A1 mRNA [4]; 100 µM) | CYP1A1 mRNA induction relative to rac-LAN (CYP1A1 mRNA [4]; 100 µM) | share of circulating drug [5] | systemic exposure relative to the S-enantiomer [5] [fold] | CYP1A1 mRNA induction (CYP1A1 mRNA [1]; hepatocyte culture HH52, 24 h, 100 µM) | effect on CYP1A2 mRNA relative to S-LAN (CYP1A2 mRNA) | CYP1A2 protein induction (CYP1A2 protein) |
| --- | --- | --- | --- | --- | --- | --- | --- | --- | --- | --- | --- | --- | --- | --- | --- |
| Cc1c(OCC(F)(F)F)ccnc1C[S+]([O-])c1nc2ccccc2[nH]1 (racemic) [rac-LAN, rac-lansoprazole] | 358 | 22.8±5.6 | 2.4 ± 0.1 | > 250 |  |  |  |  |  |  |  |  |  |  |  |
| COc1ccc2[nH]c([S+]([O-])Cc3ncc(C)c(OC)c3C)nc2c1 (racemic) [rac-OME, rac-omeprazole] | 740 | 51.4±30.4 | 30.1 ± 2.2 | > 250 | approximately 180 fold | 706 | strong induction | not cytotoxic |  |  |  |  |  |  |  |
| Cc1c(OCC(F)(F)F)ccnc1C[S@@+]([O-])c1nc2ccccc2[nH]1 [R-LAN, R-lansoprazole] | 575 | 23.0±10.0 | 5.7 ± 2.9 | > 250 |  |  |  |  | four times stronger | two times stronger | more than 80% | 5 | 17 % of TCDD induction | two times stronger | strong induction |
